The source of these data is patent US7557113B2, “Substituted pyrrolo[3,2-d]pyrimidine derivatives” (Teijin Pharma Limited, priority 2003, dated 2009).

In general, IC50 refers to the concentration that inhibits the measured activity by half.

The structures appear in SMILES notation.

Sequence of recombinant human GSK-3β (P49841 whole entry): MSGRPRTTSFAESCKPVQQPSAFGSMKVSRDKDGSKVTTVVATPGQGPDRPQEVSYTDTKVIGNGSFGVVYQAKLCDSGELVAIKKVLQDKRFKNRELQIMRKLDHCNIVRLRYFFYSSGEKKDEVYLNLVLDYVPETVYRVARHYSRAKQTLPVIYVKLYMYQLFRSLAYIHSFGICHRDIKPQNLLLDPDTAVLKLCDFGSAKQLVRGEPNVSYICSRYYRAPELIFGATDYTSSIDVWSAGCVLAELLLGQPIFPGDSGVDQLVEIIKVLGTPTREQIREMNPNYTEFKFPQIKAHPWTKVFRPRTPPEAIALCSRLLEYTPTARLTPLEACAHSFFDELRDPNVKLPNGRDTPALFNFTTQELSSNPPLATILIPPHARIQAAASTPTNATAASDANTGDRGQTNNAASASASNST

For the first experiment, the target named is recombinant human GSK-3β (Homo sapiens, UniProt P49841). The experiment in a line: Determination of Inhibition of GSK-3 Activity (phospho-glycogen synthase peptide-2 phosphorylation, [γ-33P]ATP, scintillation counting). The experiment is classed as biochemical. The settings on record: group stated as 20 nM<IC50<100 nM; read-out: GSK-3 inhibitor activity values (IC50 values). Here is the method:
The reaction was initiated by adding 25 μL of phospho-glycogen synthase peptide-2 substrate solution [containing 6 μM phospho-glycogen synthase peptide-2, 20 μM ATP, 16 mM MOPS buffer (pH 7.0), 0.2 mM EDTA, 20 mM magnesium acetate, 0.1 μ Ci[γ-^33P]ATP (relative activity: approximately 110 TBq/mmol)] to 5 μL of each test compound using 5% dimethylsulfoxide as a solvent, and further adding 20 μL of GSK-3β enzyme solution [containing 10 mU recombinant human GSK-3β, 20 mM MOPS buffer (pH 7.0), 1 mM EDTA, 0.1% polyoxyethylene lauryl ether(23 Lauryl Ether; Brij 35), 5% glycerol, and 0.1% β-mercaptoethanol. After 20 minutes at room temperature, the reaction was terminated by the addition of the equivalent amount of 200 mM phosphoric acid solution. 90 μL of the reaction product was spotted onto a multiscreen PH plate (manufactured by Millipore) and washed with 100 mM phosphoric acid solution. The plate was dried, and 30 μL of MicroScint-O (manufactured by Packard BioScience) was added thereto. To evaluate inhibitory activity, cpm was counted using a scintillation counter. Here, Phospho GS Peptide 2 is an amino acid peptide having the following sequence: […]P)-Glu-Asp-Glu-Glu-Glu.
Turning to `CC(=O)NCCn1c(-c2sccc2Cl)c(-c2cccnc2)c2nc[nH]c(=O)c21` [Compound 217, N-{2-[6-(3-chloro(2-thienyl))-4-oxo-7-(3-pyridyl)-3-hydropyrrolo[3,2-d]pyrimidin-5-yl]ethyl}acetamide], the IC50 is 20 to 100 nM.

Consider `CC(C)(C)CC(=O)NCCn1c(-c2sccc2Cl)c(-c2cccnc2)c2nc[nH]c(=O)c21` [Compound 626, N-{2-[6-(3-chloro-thiophen-2-yl)-4-oxo-7-pyridin-3-yl-3-hydropyrrolo[3,2-d]pyrimidin-5-yl]ethyl}-t-butylacetylamide], for which the IC50 lay in the range of 20 to 100 nM.

On to `O=C(NCCn1c(-c2sccc2Cl)c(-c2cccnc2)c2nc[nH]c(=O)c21)Nc1ccccc1` [Compound 793, 1-{2-[6-(3-chloro-thiophen-2-yl)-4-oxo-7-pyridin-3-yl-3-hydropyrrolo[3,2-d]pyrimidin-5-yl]ethyl}-3-phenylurea], for which the half-inhibitory concentration (IC50) lay in the range of 20 to 100 nM.

`Cc1ccc(CNC(=O)CCCn2c(C3CC3)c(-c3cccnc3)c3nc[nH]c(=O)c32)cc1` [Compound 2331, 4-(6-cyclopropyl-4-oxo-7-(3-pyridyl)(3-hydropyrrolo[3,2-d]pyrimidin-5-yl))-N-[(4-methylphenyl)methyl]butanamide]: the half-inhibitory concentration (IC50) fell in the range of 20 to 100 nM.

On to `Cc1ccc(CNC(=O)CCCn2c(C3CC3)c(-c3cnn(C)c3)c3nc[nH]c(=O)c32)cc1` [Compound 2332, 4-[6-cyclopropyl-7-(1-methylpyrazol-4-yl)-4-oxo-(3-hydropyrrolo[3,2-d]pyrimidin-5-yl)]-N-[(4-methylphenyl)methyl]butanamide], for which the concentration for half-maximal inhibition (IC50) lay in the range of 20 to 100 nM.

The experiment is the same for the next values; noted with them: group stated as IC50<100 nM; read-out: GSK-3 inhibitor activity values (IC50 values).
`CC(C)(C)CC(=O)NCCn1c(-c2sccc2Cl)c(-c2cn[nH]c2)c2nc[nH]c(=O)c21` [Compound 629, N-{2-[7-(1H-pyrazol-4-yl)-6-(3-chloro-thiophen-2-yl)-4-oxo-3-hydropyrrolo[3,2-d]pyrimidin-5-yl]ethyl}-t-butylacetylamide]: the IC50 was below 100 nM.
